Reference: patent US20140162285A1, “Methods of Modulating Vesicular Trafficking” (The General Hospital Corporation, priority 2009, published 2014)
Peptide text beside a SMILES is read from it. * marks the point of attachment. Biotin = O=C1N[C@H]2[C@H](CS[C@H]2CCCCC(=O)*)N1

How the values were obtained:
PB-domain of ARNO = target: T1, PB-domain of ARNO (Homo sapiens, UniProt Q99418); test: a2N-derived peptide pull-down with GST-PB domain; format: binding
T1 construct: v) 379-400aa, polybasic (PB) domain; made in house; host or cells: E. coli BL21(DE3)
Method: FIGS. 5A-C are a set of three images of Western blots showing the identification of interaction motif of a2N that is involved in specific binding with the Sec7 domain of ARNO. 5A, The catalytic Sec7 domain of ARNO interacts with two a2N-derived peptides, a2N-01 and a2N-03, in pull-down experiments. The peptide pull-down assay was performed with six a2N-derived interaction peptides immobilized on streptavidin-beads and incubated with purified recombinant GST-only or GST-Sec7 domain. Interacting complexes were eluted and analyzed by Western blotting using monoclonal anti-GST antibodies as described below. The loading controls for GST-only (lane 1) or GST-Sec7 (lane 2) are shown. […] The peptide pull-down assay was performed with peptides a2N-01 and a2N-03 immobilized on streptavidin-beads and incubated with purified recombinant GST-PH domain (5B) or GST-PB domain (5C). Interacting complexes were eluted and analyzed by Western blotting using monoclonal anti-GST antibodies. […]
These a2N-derived peptides were immobilized by an N-terminal biotin-tag, which ensured the same efficiency and equivalent binding to streptavidin-agarose beads. […] After washing beads four times in ice-cold binding buffer, the interacting complexes were eluted by boiling in SDS-PAGE sample buffer for 10 min at 95° C., resolved by SDS-PAGE and analyzed by Western blotting using monoclonal anti-GST antibody. […]

ARNO CC-domain = target: T2, ARNO CC-domain (Homo sapiens, UniProt Q99418); test: GST pull-down of in vitro translated a2N with ARNO CC-domain; format: binding; settings: Western blot anti-a2N
T2 construct: ii) 1-60aa, coiled-coil (CC) domain; made in house; host or cells: E. coli BL21(DE3)
T2 sequence (Q99418 1-60): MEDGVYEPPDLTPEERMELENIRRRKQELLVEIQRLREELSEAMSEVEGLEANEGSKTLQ
Method: The purified recombinant GST-ARNO(wt) and GST-tagged ARNO domain constructs ([…]) were incubated with 10 μl of in vitro translated 6His-a2N recombinant protein at 4° C. for 2 hours in 500 μl of binding buffer (10 mM HEPES, 1 mM EDTA, 1 mM DTT, 100 mM NaCl, 10% glycerol, 0.1% NP-40) with gentle rotation. Then the interacting recombinant proteins were immobilized on glutathione beads by incubation with 50 μl of 50% glutathione Sepharose 4B slurry for 2 hours at 4° C. The beads were collected by centrifugation and washed 5 times with 500 μl ice-cold binding buffer. Interacting proteins were eluted by boiling in SDS-PAGE sample buffer for 10 min at 95° C., resolved by SDS-PAGE and analyzed by Western blotting using polyclonal anti-a2N antibodies. […]
To examine the ability of these well-defined and functionally distinct domains of ARNO to interact with a2N1-402, full-length ARNO(wt) and its four domains were cloned separately for bacterial expression of recombinant proteins (FIG. 3). […] Interacting proteins were detected by western blot analysis with a2-specific antibodies as described above.

T1 sequence (Q99418 379-400 limits assumed): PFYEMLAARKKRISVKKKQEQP

## CSCC[C@H](NC(=O)CCCC[C@@H]1SC[C@@H]2NC(=O)N[C@@H]21)C(=O)NCC(=O)N[C@@H](CO)C(=O)N[C@@H](CC(C)C)C(=O)N[C@@H](Cc1ccccc1)C(=O)N[C@@H](CCCNC(=N)N)C(=O)N[C@@H](CO)C(=O)N[C@@H](CCC(=O)O)C(=O)N[C@@H](CO)C(=O)N[C@@H](CCSC)C(=O)N[C@@H](CS)C(=O)N[C@@H](CC(C)C)C(=O)N[C@@H](C)C(=O)N[C@@H](CCC(N)=O)C(=O)N[C@@H](CC(C)C)C(=O)N[C@@H](Cc1ccccc1)C(=O)N[C@@H](CC(C)C)C(=O)N[C@@H](CS)C(=O)O [a2N-01, Bio-MGSLFRSE SMCLAQLFL-Cys] (Biotin-MGSLFRSESMCLAQLFLC-OH; N-terminus and C-terminus assumed)
PB-domain of ARNO
  interaction with PB-domain of ARNO: does not interact

B1: a2N: recombinant N-terminal cytosolic tail, amino acid residues 1-402 of mouse V-ATPase a2-subunit (protein)
chain: MGSLFRSESMCLAQLFLQSGTAYECLSALGEKGLVQFRDLNQNVSSFQRKFVGEVKRCEELERILVYLVQEITRADIPLPEGEASPPAPPLKHVLEMQEQLQKLEVELREVTKNKEKLRKNLLELVEYTHMLRVTKTFLKRNVEFEPTYEEFPALENDSLLDYSCMQRLGAKLGFVSGLIQQGRVEAFERMLWRACKGYTIVTYAELDECLEDPETGEVIKWYVFLISFWGEQIGHKVKKICDCYHCHIYPYPNTAEERREIQEGLNTRIQDLYTVLHKTEDYLRQVLCKAAESVCSRVVQVRKMKAIYHMLNMCSFDVTNKCLIAEVWCPEVDLPGLRRALEEGSRESGATIPSFMNTIPTKETPPTLIRTNKFTEGFQNIVDAYGVGSYREVNPALFTII
modifications: left off: small tags and cut ends
notes: recombinant N-terminal cytosolic tail, amino acid residues 1-402 of mouse V-ATPase a2-subunit
ARNO CC-domain
  interaction of a2N with ARNO CC-domain: no interaction
